{
  "source": "patent US20150320709A1",
  "about": "“METHODS AND COMPOSITIONS FOR FACILITATING WEIGHT LOSS BY ADMINISTRATION OF THYROID HORMONES” (priority 2011, published 2015)",
  "key": {"[1]": {"test": "Circulating thyroid hormone labs (FT3, FT4, rT3, TSH) in weight loss program patients on thyroid hormone treatment", "assay_type": "in vivo, human", "excerpt": "FIG. 1 depicts hormonal responses to a hypocaloric state with subsequent treatment. Note: Time frames and shapes of response curves are approximated. Levels of all four hormones are normal before the diet (Time A). At time between time points B and D, TSH is dropping slightly to signal the thyroid gland to make less thyroid hormone. This drop is the mechanism to decrease metabolism in the hypocaloric state. At point C, free T3 begins to drop as rT3 increases. Also at time point C, different observations have been reported for changes in FT4: in our experience, FT4 also drops as indicated on the graph. In the literature, some report no change, whereas others report an increase in FT4. By the time of the blood sampling (time E), in our experience, patients whose FT3 and FT4 have dropped to the low end of normal (with possible above normal rT3 levels) are those experiencing symptoms of low thyroid. They may have any of the following symptoms: feeling cold, cold hands and feet, elevated diastolic blood pressure secondary to vasoconstriction, fatigue, depression, constipation, hair loss, dry skin, insomnia, as well as others. They have often hit a plateau of weight loss even though they have continued to maintain their hypocaloric diet and exercise program. At point F, we begin treatment with thyroid hormone (for example, T4 with T3, T3 alone, T3 with T2 and T4, or T2 alone. Between points F and G, FT3 and rT3 (and FT4 if T4 was administered) are returning to more normal levels, while TSH plummets, often to undetectable levels. At time point H, symptoms of low thyroid are resolved, the patient has no symptoms of hyperthyroidism, and if rT3 had risen and was treated appropriately, rT3 decreased.\nThe first patient example is a person, 5′2″, weight 268 lbs, body mass index (BMI) 49 (nl 19-24; overweight 25-29; obesity≧30). Baseline blood pressure was 110/74, blood sugar (BS) was 153 mg/dL 10 days after their first visit. Their medical problems at baseline included obesity, type 2 diabetes mellitus (DM2), high blood pressure (HTN), fatigue, depression, and asthma. Their medications included glipizide 10 mg daily, amitriptyline 50 mg daily, metoprolol 50 mg daily, furosemide 40 mg daily, potassium chloride, lisinopril 10 mg daily, Advair Discus 500/50 twice daily (bid), and montelukast 10 mg daily. They were started on our comprehensive program. Five months after starting their weight loss treatment, they developed symptoms of hypothyroidism with constipation and fatigue. They had lost 28 lbs by this time and was having difficulty losing more weight even though they were eating less than they were before their weight loss treatment began. At the start of treatment, their FT4 was 0.9 ng/dL (nl 0.7-1.48). At the time of their low thyroid symptoms, their FT3 was 2.9 pg/mL (nl 1.71-3.71) and their FT4 was 0.91 ng/dL (nl 0.7-1.48). They were then treated with thyroid hormone (desiccated thyroid with a ratio of T4:T3 of about 4:1) at 60 mg daily for 6 days to acclimate, then increased to 120 mg daily. […] After two years on their weight loss treatment, their weight was 231 lbs. […] We tested for rT3 at this point. Their labs on the 150 mg dose of desiccated thyroid were: rT3 394 pg/mL (nl 90-350), FT3 3.94 pg/mL (nl 1.71-3.71), and FT4 1.24 ng/dL (nl 0.7-1.48). The task of bringing down their rT3 was then addressed. Over a period of a few months, their desiccated thyroid hormone was discontinued and instead the patient was given gradually increasing doses of T3 only, starting at 20 mcg daily and gradually increasing the T3 to 60 mcg bid. Five months after starting on T3 with increasing doses, their weight had dropped to 209 lbs. Their BP was 118/66 mmHg with pulse of 74 on lisinopril 10 mg daily, metoprolol 50 mg bid, and furosemide 40 mg daily. Instead of glipizide, they were taking metformin 500 mg bid. […] Their most recent labs on 60 mcg bid of T3 were FT3 3.8 pg/mL (nl 1.71-3.71), FT4 0.64 ng/dL (nl 0.7-1.48) and rT3 137 pg/mL (nl 90-350). Four months prior to this visit their BS was 125 mg/dl. […]"}, "[2]": {"test": "Low thyroid symptoms / clinical status of weight loss program patients on thyroid hormone treatment", "assay_type": "in vivo, human"}, "[3]": {"test": "Low thyroid symptoms / clinical status of weight loss program patients on thyroid hormone treatment", "assay_type": "in vivo, human", "settings": "Patient Example 2; 75 mcg daily, within a few weeks of switch from desiccated thyroid", "procedure": "The first patient example is a person, 5′2″, weight 268 lbs, body mass index (BMI) 49 (nl 19-24; overweight 25-29; obesity≧30). Baseline blood pressure was 110/74, blood sugar (BS) was 153 mg/dL 10 days after their first visit. Their medical problems at baseline included obesity, type 2 diabetes mellitus (DM2), high blood pressure (HTN), fatigue, depression, and asthma. Their medications included glipizide 10 mg daily, amitriptyline 50 mg daily, metoprolol 50 mg daily, furosemide 40 mg daily, potassium chloride, lisinopril 10 mg daily, Advair Discus 500/50 twice daily (bid), and montelukast 10 mg daily. They were started on our comprehensive program. Five months after starting their weight loss treatment, they developed symptoms of hypothyroidism with constipation and fatigue. They had lost 28 lbs by this time and was having difficulty losing more weight even though they were eating less than they were before their weight loss treatment began. At the start of treatment, their FT4 was 0.9 ng/dL (nl 0.7-1.48). At the time of their low thyroid symptoms, their FT3 was 2.9 pg/mL (nl 1.71-3.71) and their FT4 was 0.91 ng/dL (nl 0.7-1.48). They were then treated with thyroid hormone (desiccated thyroid with a ratio of T4:T3 of about 4:1) at 60 mg daily for 6 days to acclimate, then increased to 120 mg daily. […] After two years on their weight loss treatment, their weight was 231 lbs. […] We tested for rT3 at this point. Their labs on the 150 mg dose of desiccated thyroid were: rT3 394 pg/mL (nl 90-350), FT3 3.94 pg/mL (nl 1.71-3.71), and FT4 1.24 ng/dL (nl 0.7-1.48). The task of bringing down their rT3 was then addressed. Over a period of a few months, their desiccated thyroid hormone was discontinued and instead the patient was given gradually increasing doses of T3 only, starting at 20 mcg daily and gradually increasing the T3 to 60 mcg bid. Five months after starting on T3 with increasing doses, their weight had dropped to 209 lbs. Their BP was 118/66 mmHg with pulse of 74 on lisinopril 10 mg daily, metoprolol 50 mg bid, and furosemide 40 mg daily. Instead of glipizide, they were taking metformin 500 mg bid. […] Their most recent labs on 60 mcg bid of T3 were FT3 3.8 pg/mL (nl 1.71-3.71), FT4 0.64 ng/dL (nl 0.7-1.48) and rT3 137 pg/mL (nl 90-350). Four months prior to this visit their BS was 125 mg/dl.\nThe second patient example is a person, 5′2″, weight 150 lbs, BMI 28 (nl 18.5-24.9; overweight 25-29.9; obesity≧30), with HTN. Their blood pressure was slightly elevated at 148/85 (on lisinopril 5 mg daily). Their medical problems at baseline included history of Hashimoto's thyroiditis, borderline high TSH, elevated lipids, and HTN. Their medications were lisinopril 5 mg daily, estradiol 2 mg daily, and rofecoxib 25 mg daily for osteoarthritis of their large joints. […]"}, "[4]": {"test": "Existing thyroid therapy in subjects undergoing a weight loss regimen (general finding)", "assay_type": "in vivo", "settings": "T4 alone or T3:T4 at ratios of less than 1:2", "excerpt": "Such T4 based therapy often serves to increase levels of rT3 and decreases levels of circulating T3, thereby undermining attempts to counter hypothyroidism and effect continued weight loss."}, "[5]": {"tested_on": "thyroid hormone receptors", "settings": "cited from earlier work"}},
  "data": [
    {"smiles": "N[C@@H](Cc1cc(I)c(Oc2ccc(O)cc2)c(I)c1)C(=O)O", "note": "[T2, 3,5-diiodo-1-thyronine]", "values": [
      {"measurement": "FT4", "setting": "[1]; Patient Example 3, T2 2 mcg SR q AM added, T3 25 mcg b.i.d., normal range 0.93-1.7", "result": 0.23, "unit": "ng/dL"},
      {"measurement": "FT3", "setting": "[1]; Patient Example 3, T2 2 mcg SR q AM added, T3 25 mcg b.i.d., normal range 2.2-4.0", "result": 3.2, "unit": "pg/mL"},
      {"measurement": "rT3", "setting": "[1]; Patient Example 3, T2 2 mcg SR q AM added, T3 25 mcg b.i.d., normal range 90-350", "result": 69, "unit": "pg/mL"},
      {"measurement": "FT3", "setting": "[1]; Patient Example 4, T2 2 mcg twice daily added, T3 50 mcg twice daily, normal range 2.2-4.0", "result": 2.7, "unit": "pg/mL"},
      {"measurement": "reported symptoms", "setting": "[2]; Patient Example 3, T2 2 mcg SR q AM added, T3 25 mcg b.i.d., 10 days after start of T2", "result": "surfaces of their body were now warm and not numb, and that their skin and hair had improved"},
      {"measurement": "energy levels", "setting": "[2]; Patient Example 3, T2 2 mcg SR q AM added, T3 decreased to 25 mcg b.i.d., two days later", "result": "energy levels were normalized"},
      {"measurement": "low thyroid symptoms", "setting": "[2]; Patient Example 3, over six weeks after starting the T2 regimen", "result": "not suffering from any symptoms of low thyroid"},
      {"measurement": "reported symptoms", "setting": "[2]; Patient Example 4, T2 2 mcg q AM and 8-10 hours later added, T3 reduced to 50 mcg twice daily, nearly two months", "result": "no complaints of fatigue and reported that only a slight coldness persisted"}
    ]},
    {"smiles": "N[C@@H](Cc1cc(I)c(Oc2cc(I)c(O)c(I)c2)c(I)c1)C(=O)O", "note": "[T4, (2S)-2-amino-3-[4-(4-hydroxy-3,5-diiododophenoxy)-3,5-diiodophenyl]propanoic acid]", "values": [
      {"measurement": "TSH", "setting": "[1]; Patient Example 2, 75 mcg daily", "result": 0.91, "unit": "uIU/mL"},
      {"measurement": "FT4", "setting": "[1]; Patient Example 2, 75 mcg daily, nl 0.93-1.70", "result": 1.07, "unit": "ng/dL"},
      {"measurement": "FT3", "setting": "[1]; Patient Example 2, 75 mcg daily, nl 2.2-4.0", "result": 2.3, "unit": "pg/mL"},
      {"measurement": "low thyroid symptoms", "setting": "[3]", "result": "began to feel tired, cold, and depressed and developed constipation and hair loss"},
      {"measurement": "correction of thyroid abnormalities and/or hypothyroidism so as to permit continuing weight loss", "setting": "[4]", "result": "fails to correct thyroid abnormalities and/or hypothyroidism"}
    ]},
    {"smiles": "N[C@@H](Cc1ccc(Oc2cc(I)c(O)c(I)c2)c(I)c1)C(=O)O", "note": "[rT3, reverse triiodothyronine]", "values": [
      {"measurement": "action on thyroid hormone receptors", "setting": "[5]", "result": "does not stimulate thyroid hormone receptors but instead binds to these receptors"}
    ]}
  ]
}
